# ChEMBL document CHEMBL1697692, “Developing structure-activity relationships for the prediction of hepatotoxicity” (Chem Res Toxicol, 2010)
# Numbered stars: 1 amine (or outer) side, 2 acyl side, 3 side chain; on linkers, the order of the positions; unused ones are H or OH. Bridge positions count the residues as written; N and C are the ends. Square brackets hold non-standard residues; d marks the D form. Peptide text beside a SMILES is read from it. I, II: the chains in the order shown. Actinocin(9to1) = Cc1c2oc3c(C)ccc(C(=O)[*:1])c3nc-2c(C(=O)[*:2])c(N)c1=O; NMeV = CN[C@H](C(=O)O)C(C)C; Sar = CNCC(=O)O
# Tested on: Hepatotoxicity
# Assay: Literature-mined public compounds from Greene et al multi-species hepatotoxicity modelling dataset
row,SMILES,Hepatotoxicity
1,CC1(C)[C@@H](OC(=O)CCC(=O)[O-])CC[C@]2(C)[C@H]3C(=O)C=C4[C@@H]5C[C@@](C)(C(=O)[O-])CC[C@]5(C)CC[C@@]4(C)[C@]3(C)CC[C@@H]12.[Na+].[Na+] [CARBENOXOLONE SODIUM],NE: No evidence of hepatotoxicity in any species
2,C[C@@](Cc1ccc(O)c(O)c1)(NN)C(=O)O.O [CARBIDOPA],NE: No evidence of hepatotoxicity in any species
3,ClC(Cl)(Cl)Cl [CARBON TETRACHLORIDE],HH: Evidence of human hepatotoxicity
4,CC1=C(C(=O)O)N2C(=O)[C@@H](NC(=O)[C@H](N)c3ccc(O)cc3)[C@H]2SC1 [CEFADROXIL],HH: Evidence of human hepatotoxicity
5,Cn1nnnc1SCC1=C(C(=O)[O-])N2C(=O)[C@@H](NC(=O)[C@H](O)c3ccccc3)[C@H]2SC1.[Na+] [CEFAMANDOLE SODIUM],HH: Evidence of human hepatotoxicity
6,CCN1CCN(C(=O)N[C@@H](C(=O)N[C@@H]2C(=O)N3C(C(=O)O)=C(CSc4nnnn4C)CS[C@H]23)c2ccc(O)cc2)C(=O)C1=O.O.O [CEFOPERAZONE DIHYDRATE],NE: No evidence of hepatotoxicity in any species
7,CO[C@@]1(NC(=O)C2SC(=C(C(N)=O)C(=O)O)S2)C(=O)N2C(C(=O)O)=C(CSc3nnnn3C)CS[C@@H]21 (stereo partly specified) [CEFOTETAN],NE: No evidence of hepatotoxicity in any species
8,CN(C)CCn1nnnc1SCC1=C(C(=O)O)N2C(=O)[C@@H](NC(=O)Cc3csc(N)n3)[C@H]2SC1.Cl.Cl [CEFOTIAM HYDROCHLORIDE],HH: Evidence of human hepatotoxicity
9,CO[C@@]1(NC(=O)Cc2cccs2)C(=O)N2C(C(=O)O)=C(COC(N)=O)CS[C@@H]21 [CEFOXITIN],HH: Evidence of human hepatotoxicity
10,CC(C)(O/N=C(\C(=O)N[C@@H]1C(=O)N2C(C(=O)[O-])=C(C[n+]3ccccc3)CS[C@H]12)c1csc(N)n1)C(=O)O [CEFTAZIDIME],WE: Weak evidence (<10 case reports) of human hepatotoxicity
11,O=C(Cc1cccs1)N[C@@H]1C(=O)N2C(C(=O)[O-])=C(C[n+]3ccccc3)CS[C@H]12 [CEPHALORIDINE],AH: Evidence for animal hepatotoxicity but not tested in humans
12,CC(=O)OCC1=C(C(=O)[O-])N2C(=O)[C@@H](NC(=O)Cc3cccs3)[C@H]2SC1.[Na+] [CEPHALOTHIN SODIUM],HH: Evidence of human hepatotoxicity
13,CC(=O)OCC1=C(C(=O)[O-])N2C(=O)[C@@H](NC(=O)CSc3ccncc3)[C@H]2SC1.[Na+] [CEPHAPIRIN SODIUM],NE: No evidence of hepatotoxicity in any species
14,CC1=C(C(=O)O)N2C(=O)[C@@H](NC(=O)[C@H](N)C3=CCC=CC3)[C@H]2SC1 [CEPHRADINE],NE: No evidence of hepatotoxicity in any species
15,COCc1c(C(C)C)nc(C(C)C)c(/C=C/[C@@H](O)C[C@@H](O)CC(=O)O)c1-c1ccc(F)cc1 [CERIVASTATIN],HH: Evidence of human hepatotoxicity
16,C[C@H](CCC(=O)O)[C@H]1CC[C@H]2[C@@H]3[C@H](O)C[C@@H]4C[C@H](O)CC[C@]4(C)[C@H]3CC[C@]12C [CHENODIOL],HH: Evidence of human hepatotoxicity
17,CCCCCCCCCCCCCCCC(=O)OC[C@@H](NC(=O)C(Cl)Cl)[C@H](O)c1ccc([N+](=O)[O-])cc1 [CHLORAMPHENICOL PALMITATE],HH: Evidence of human hepatotoxicity
18,ClC(Cl)Cl [CHLOROFORM],AH: Evidence for animal hepatotoxicity but not tested in humans
19,CCN(CC)CCCC(C)Nc1ccnc2cc(Cl)ccc12.O=P(O)(O)O.O=P(O)(O)O (stereo unspecified) [CHLOROQUINE PHOSPHATE],WE: Weak evidence (<10 case reports) of human hepatotoxicity

row,SMILES,Hepatotoxicity
1,CN(C)CCC(c1ccc(Cl)cc1)c1ccccn1.O=C(O)/C=C\C(=O)O (stereo unspecified) [CHLORPHENIRAMINE MALEATE],HH: Evidence of human hepatotoxicity
2,CN(C)CCCN1c2ccccc2Sc2ccc(Cl)cc21 [CHLORPROMAZINE],HH: Evidence of human hepatotoxicity
3,CCCNC(=O)NS(=O)(=O)c1ccc(Cl)cc1 [CHLORPROPAMIDE],HH: Evidence of human hepatotoxicity
4,CN(C)[C@@H]1C(O)=C(C(N)=O)C(=O)[C@@]2(O)C(O)=C3C(=O)c4c(O)ccc(Cl)c4[C@@](C)(O)[C@H]3C[C@@H]12.Cl [CHLORTETRACYCLINE HYDROCHLORIDE],HH: Evidence of human hepatotoxicity
5,Cc1cc(C2CCCCC2)n(O)c(=O)c1 [CICLOPIROX],NE: No evidence of hepatotoxicity in any species
6,CC1(COc2ccc(CC3SC(=O)NC3=O)cc2)CCCCC1 (stereo unspecified) [CIGLITAZONE],HH: Evidence of human hepatotoxicity
7,CN/C(=N/CCSCc1nc[nH]c1C)NC#N [CIMETIDINE],WE: Weak evidence (<10 case reports) of human hepatotoxicity
8,O=C(O)c1cc(-c2ccccc2)nc2ccccc12 [CINCHOPHEN],HH: Evidence of human hepatotoxicity
9,CC(C)(Oc1ccc(C2CC2(Cl)Cl)cc1)C(=O)O (stereo unspecified) [CIPROFIBRATE],HH: Evidence of human hepatotoxicity
10,COc1cc(N)c(Cl)cc1C(=O)NC1CCN(CCCOc2ccc(F)cc2)CC1OC (stereo unspecified) [CISAPRIDE],NE: No evidence of hepatotoxicity in any species
11,CN(C)CCCC1(c2ccc(F)cc2)OCc2cc(C#N)ccc21 (stereo unspecified) [CITALOPRAM],WE: Weak evidence (<10 case reports) of human hepatotoxicity
12,C[N+](C)(C)CCOP(=O)(O)OP(=O)([O-])OC[C@H]1O[C@@H](n2ccc(N)nc2=O)[C@H](O)[C@@H]1O [CITICOLINE],NE: No evidence of hepatotoxicity in any species
13,Nc1nc(Cl)nc2c1ncn2[C@H]1C[C@H](O)[C@@H](CO)O1 [CLADRIBINE],NE: No evidence of hepatotoxicity in any species
14,CC[C@H]1OC(=O)[C@H](C)[C@@H](O[C@H]2C[C@@](C)(OC)[C@@H](O)[C@H](C)O2)[C@H](C)[C@@H](O[C@@H]2O[C@H](C)C[C@H](N(C)C)[C@H]2O)[C@](C)(OC)C[C@@H](C)C(=O)[C@H](C)[C@@H](O)[C@]1(C)O [CLARITHROMYCIN],HH: Evidence of human hepatotoxicity
15,CN1CCC[C@@H]1CCO[C@](C)(c1ccccc1)c1ccc(Cl)cc1.O=C(O)/C=C/C(=O)O [CLEMASTINE FUMARATE],NE: No evidence of hepatotoxicity in any species
16,NC1CCN(c2c(F)cc3c(=O)c(C(=O)O)cn(C4CC4)c3c2Cl)C1 (stereo unspecified) [CLINAFLOXACIN],WE: Weak evidence (<10 case reports) of human hepatotoxicity
17,CCC[C@@H]1C[C@@H](C(=O)N[C@@H]([C@H]2O[C@H](SC)[C@H](O)[C@@H](O)[C@H]2O)[C@H](C)Cl)N(C)C1.Cl [CLINDAMYCIN HYDROCHLORIDE],HH: Evidence of human hepatotoxicity
18,CCOC(=O)C(C)(C)Oc1ccc(Cl)cc1 [CLOFIBRATE],HH: Evidence of human hepatotoxicity
19,CN(C)CCCN1c2ccccc2CCc2ccc(Cl)cc21 [CLOMIPRAMINE],HH: Evidence of human hepatotoxicity

row,SMILES,Hepatotoxicity
1,Cl.Clc1cccc(Cl)c1NC1=NCCN1 [CLONIDINE HYDROCHLORIDE],HH: Evidence of human hepatotoxicity
2,Clc1ccccc1C(c1ccccc1)(c1ccccc1)n1ccnc1 [CLOTRIMAZOLE],WE: Weak evidence (<10 case reports) of human hepatotoxicity
3,Cc1onc(-c2ccccc2Cl)c1C(=O)N[C@@H]1C(=O)N2[C@@H]1SC(C)(C)[C@@H]2C(=O)[O-].O.[Na+] [CLOXACILLIN SODIUM],HH: Evidence of human hepatotoxicity
4,CN1CCN(C2=Nc3cc(Cl)ccc3Nc3ccccc32)CC1 [CLOZAPINE],HH: Evidence of human hepatotoxicity
5,COc1cc2c(c(OC)c1OC)-c1ccc(OC)c(=O)cc1[C@@H](NC(C)=O)CC2 [COLCHICINE],WE: Weak evidence (<10 case reports) of human hepatotoxicity
6,O=C(O)c1cc(=O)c2c(OCC(O)COc3cccc4oc(C(=O)O)cc(=O)c34)cccc2o1 [CROMOLYN],NE: No evidence of hepatotoxicity in any species
7,CN1CCN(C(c2ccccc2)c2ccccc2)CC1 [CYCLIZINE],HH: Evidence of human hepatotoxicity
8,O=P1(N(CCCl)CCCl)NCCCO1 (stereo unspecified) [CYCLOPHOSPHAMIDE ANHYDROUS],HH: Evidence of human hepatotoxicity
9,CN1CCC(=C2c3ccccc3C=Cc3ccccc32)CC1.Cl [CYPROHEPTADINE HYDROCHLORIDE],HH: Evidence of human hepatotoxicity
10,CC(=O)O[C@]1(C(C)=O)CC[C@H]2[C@@H]3C=C(Cl)C4=CC(=O)[C@@H]5C[C@@H]5[C@]4(C)[C@H]3CC[C@@]21C [CYPROTERONE ACETATE],AH: Evidence for animal hepatotoxicity but not tested in humans
11,C=C(C)[C@H]1CC=C(C)CC1 [D-LIMONENE],AH: Evidence for animal hepatotoxicity but not tested in humans
12,CN(C)/N=N/c1[nH]cnc1C(N)=O [DACARBAZINE],HH: Evidence of human hepatotoxicity
13,"Cc1c2oc3c(C)ccc(C(=O)N[C@@H]4C(=O)N[C@H](C(C)C)C(=O)N5CCC[C@H]5C(=O)N(C)CC(=O)N(C)[C@@H](C(C)C)C(=O)O[C@@H]4C)c3nc-2c(C(=O)N[C@@H]2C(=O)N[C@H](C(C)C)C(=O)N3CCC[C@H]3C(=O)N(C)CC(=O)N(C)[C@@H](C(C)C)C(=O)O[C@@H]2C)c(N)c1=O [DACTINOMYCIN] (I: T[dV]P[Sar][NMeV] / II: T[dV]P[Sar][NMeV]; ester I:1-I:C, II:1-II:C; linker I:N-II:N via Actinocin(9to1))",HH: Evidence of human hepatotoxicity
14,C#C[C@]1(O)CC[C@H]2[C@@H]3CCC4=Cc5oncc5C[C@]4(C)[C@H]3CC[C@@]21C [DANAZOL],HH: Evidence of human hepatotoxicity
15,O=C1CN(/N=C/c2ccc(-c3ccc([N+](=O)[O-])cc3)o2)C(=O)[N-]1.[Na+] [DANTROLENE SODIUM],HH: Evidence of human hepatotoxicity
16,Nc1ccc(S(=O)(=O)c2ccc(N)cc2)cc1 [DAPSONE],HH: Evidence of human hepatotoxicity
17,CC(=O)N(O)CCCCCNC(=O)CCC(=O)N(O)CCCCCNC(=O)CCC(=O)N(O)CCCCCN.CS(=O)(=O)O [DEFEROXAMINE MESYLATE],HH: Evidence of human hepatotoxicity
18,CN(CCCCCCCCCCN(C)C(=O)Oc1cccc([N+](C)(C)C)c1)C(=O)Oc1cccc([N+](C)(C)C)c1.[Br-].[Br-] [DEMECARIUM BROMIDE],HH: Evidence of human hepatotoxicity
